What was measured:
mouse [1] = details: Carcinogenicity, b6c3f1, Oral, Feed, dose end: 103 week, group: systemic
rat [2] = details: Subchronic oral toxicity in rodents, fischer, Feed, dose end: 13 week, group: systemic, systemic / pathology microscopic / kidney / inflammation
mouse [3] = details: Subchronic oral toxicity in rodents, b6c3f1, Feed, dose end: 13 week, group: systemic
rat [4] = details: Carcinogenicity; fischer; Oral; Feed; dose end: 103 week; group: systemic; systemic / in life observation / body weight / body weight
rat [5] = details: Prenatal developmental toxicity study, other, Oral, Gavage/Intubation, dose end: 15 GD
dog [6] = details: Subchronic oral toxicity in nonrodent, beagle, Feed, dose end: 14 week, group: systemic
dog [7] = details: Subchronic inhalation toxicity, beagle, Whole-Body, dose end: 13 week, group: systemic, systemic / in life observation / body weight / body weight + systemic / in life observation / body weight / body weight gain + systemic / …
rat [8] = details: Multigenerational reproductive toxicity study, sprague dawley, Inhalation, Whole-Body, dose end: 2 generation
rabbit [9] = details: Subchronic inhalation toxicity, new zealand white, Whole-Body, dose end: 13 week, group: systemic
mouse [10] = details: Carcinogenicity; cd1; Inhalation; Whole-Body; dose end: 18 month; group: systemic; systemic / in life observation / body weight / body weight gain + systemic / in life observation / mortality / mortality + systemic / …
rat [11] = details: Multigenerational reproductive toxicity study, sprague dawley, Inhalation, Whole-Body, dose end: 2 generation; remark: listed apart in the source
rat [12] = details: Subchronic oral toxicity in rodents, fischer, Inhalation, Whole-Body, dose end: 90 day, group: systemic
mouse [13] = details: Subchronic inhalation toxicity, cd1, Whole-Body, dose end: 13 week, group: systemic
rat [14] = details: Subchronic inhalation toxicity, fischer, Whole-Body, dose end: 14 day, group: systemic
rat [15] = details: Combined chronic toxicity/carcinogenicity, fischer, Inhalation, Whole-Body, dose end: 104 week, group: systemic
rabbit [16] = details: Subchronic inhalation toxicity, new zealand white, Whole-Body, dose end: 14 day, group: systemic, systemic / pathology microscopic / brain / necrosis + systemic / pathology microscopic / brain / vacuolization + systemic / pathology …
dog [17] = details: Chronic toxicity; beagle; Inhalation; Whole-Body; dose end: 12 month; group: systemic; systemic / in life observation / body weight / body weight gain + systemic / in life observation / clinical signs / dental fluorosis + …
dog [18] = details: Subchronic oral toxicity in nonrodent, beagle, Gavage/Intubation, dose end: 91 day, group: systemic, systemic / organ weight / liver / absolute + systemic / clinical chemistry / alanine aminotransferase (alt/sgpt) / alanine aminotransferase…
rat [19] = details: Subchronic oral toxicity in rodents, sprague dawley, Gavage/Intubation, dose end: 91 day, group: systemic
primate [20] = details: Sub-acute repeat dose toxicity, Oral, Gavage/Intubation, dose end: 14 day, group: systemic
primate [21] = details: Sub-acute repeat dose toxicity; Oral; Gavage/Intubation; dose end: 7 day; group: systemic; systemic / pathology gross / stomach / erosion + systemic / pathology gross / stomach / foci + systemic / pathology gross / stomach / lesion…
mouse [22] = details: Sub-acute repeat dose toxicity, Oral, Gavage/Intubation, dose end: 14 day, group: systemic
primate [23] = details: Sub-acute repeat dose toxicity; Oral; Gavage/Intubation; dose end: 14 day; group: systemic; systemic / clinical chemistry / albumin / albumin + systemic / hematology / fibrinogen / fibrinogen + systemic / hematology / neutrophils / …
rat [24] = details: Sub-acute repeat dose toxicity, sprague dawley, Oral, Gavage/Intubation, dose end: 14 day, group: systemic
[25] = systemic / in life observation / body weight / body weight
[26] = systemic / in life observation / body weight / body weight + systemic / in life observation / mortality / mortality
[27] = systemic / in life observation / body weight / body weight gain + systemic / pathology microscopic / kidney / inflammation + systemic / …
[28] = group: developmental, developmental / developmental malformation / bone / fused
[29] = group: developmental, developmental / developmental malformation / bone / fused + developmental / developmental malformation / bone / incomplete ossification + …
[30] = group: maternal, systemic / in life observation / body weight / body weight gain + systemic / in life observation / food consumption / food consumption
[31] = systemic / in life observation / food consumption / food efficiency + systemic / in life observation / body weight / body weight gain + …
[32] = group: offspring, systemic / in life observation / body weight / offspring (pup) weight
[33] = group: parental, systemic / pathology gross / lung / foci + systemic / pathology microscopic / lung / alveolar macrophages
[34] = group: parental, systemic / pathology gross / lung / foci + systemic / pathology microscopic / lung / alveolar macrophages + systemic / in life observation…
[35] = systemic / in life observation / body weight / body weight + systemic / in life observation / body weight / body weight gain + systemic / …
[36] = systemic / pathology microscopic / nose / inflammation + systemic / clinical chemistry / flouride / fluoride
[37] = group: parental, systemic / pathology microscopic / lung / alveolar macrophages + systemic / in life observation / body weight / body weight + systemic / in …
[38] = group: parental, systemic / pathology microscopic / lung / alveolar macrophages + systemic / pathology gross / lung / foci
[39] = systemic / organ weight / brain / absolute + systemic / in life observation / clinical signs / tooth-mottling + systemic / pathology …
[40] = systemic / pathology microscopic / nose / inflammation
[41] = systemic / pathology microscopic / kidney / hyperplasia + systemic / pathology microscopic / kidney / basophilia
[42] = systemic / pathology microscopic / kidney / hyperplasia + systemic / pathology microscopic / kidney / basophilia + systemic / in life …
[43] = systemic / in life observation / clinical signs / dental fluorosis
[44] = systemic / in life observation / clinical signs / dental fluorosis + systemic / clinical chemistry / albumin / albumin + systemic / clinical…
[45] = systemic / clinical chemistry / [other] / [other] + systemic / clinical chemistry / alanine aminotransferase (alt/sgpt) / alanine …
[46] = systemic / clinical chemistry / alanine aminotransferase (alt/sgpt) / alanine aminotransferase (alt/sgpt) + systemic / clinical chemistry / …
[47] = systemic / clinical chemistry / cytochrome p450, nos / cytochrome p450, nos + systemic / in life observation / clinical signs / abnormal …
[48] = systemic / in life observation / food consumption / food consumption + systemic / clinical chemistry / cytochrome p450, nos / cytochrome …
[49] = systemic / clinical chemistry / [other] / [other] + systemic / clinical chemistry / 5' nucleotidase / 5' nucleotidase + systemic / clinical …
[50] = systemic / organ weight / liver / absolute + systemic / in life observation / clinical signs / salivation

`CC(C)[C@@H]1CC[C@@H](C)C[C@H]1O` (racemic) [dl-Menthol] was tested, and the LEL (mouse [1]; [25]) was 300 mg/kg/day, the NEL (mouse [1]; [25]) was less than 300 mg/kg/day and the LOAEL (mouse [1]; [26]) was greater than 600 mg/kg/day. It also gave an NOAEL (mouse [1]; [26]) of no less than 600 mg/kg/day, an LEL (rat [2]) of 750 mg/kg/day and an LOAEL (rat [2]) greater than 750 mg/kg/day. For the same compound, the NEL (rat [2]) was 375 mg/kg/day, the NOAEL (rat [2]) was no less than 750 mg/kg/day and the LOAEL (mouse [3]; [27]) was greater than 2250 mg/kg/day. The NEL (mouse [3]; [27]) was 562 mg/kg/day, the NOAEL (mouse [3]; [27]) was no less than 2250 mg/kg/day and the LEL (mouse [3]; systemic / pathology microscopic / kidney / inflammation + systemic / pathology microscopic / lymph node / hyperplasia) was 1120 mg/kg/day. It also gave an LEL (rat [4]) of 375 mg/kg/day, an LOAEL (rat [4]) greater than 18700 mg/kg/day and an NEL (rat [4]) of less than 375 mg/kg/day. It also gave an NOAEL (rat [4]) of no less than 18700 mg/kg/day.

With `CCNc1nc(N)nc(Cl)n1` [Deisopropylatrazine] the LEL (rat [5]; [28]) was 25 mg/kg/day, the LOAEL (rat [5]; [28]) was 25 mg/kg/day and the NEL (rat [5]; [29]) was 5 mg/kg/day. It also gave an NOAEL (rat [5]; [29]) of 5 mg/kg/day, an LEL (rat [5]; [30]) of 25 mg/kg/day and an LOAEL (rat [5]; [30]) of 25 mg/kg/day. The NEL (rat [5]; [30]) was 5 mg/kg/day, the NOAEL (rat [5]; [30]) was 5 mg/kg/day and the LOAEL (dog [6]; systemic / in life observation / food consumption / food efficiency) was 18 mg/kg/day. For the same compound, the LEL (dog [6]; [31]) was 18 mg/kg/day, the NEL (dog [6]; [31]) was 3.8 mg/kg/day and the NOAEL (dog [6]; [31]) was 3.8 mg/kg/day.

In the case of `O=S(=O)(F)F` [Sulfuryl fluoride], the LEL (dog [7]) is reported as 200 ppm, the LOAEL (dog [7]) is reported as 200 ppm and the NEL (dog [7]) is reported as 100 ppm. It also gave an NOAEL (dog [7]) of 100 ppm, an LEL (rat [8]; [32]) of 108 mg/kg/day and an LOAEL (rat [8]; [32]) of 108 mg/kg/day. The NEL (rat [8]; [32]) was 14 mg/kg/day, the NOAEL (rat [8]; [32]) was 14 mg/kg/day and the LEL (rat [8]; [33]) was 14 mg/kg/day. For the same compound, the LOAEL (rat [8]; [33]) was 14 mg/kg/day, the NEL (rat [8]; [34]) was 3.6 mg/kg/day and the NOAEL (rat [8]; [34]) was 3.6 mg/kg/day. For the same compound, the LOAEL (rabbit [9]; [35]) was 100 ppm, the NOAEL (rabbit [9]; [35]) was 29.8 ppm and the LEL (rabbit [9]; [36]) was 29.8 ppm. The NEL (rabbit [9]; [36]) was less than 29.8 ppm, the LEL (mouse [10]) was 79.3 mg/kg/day and the LOAEL (mouse [10]) was 79.3 mg/kg/day. For the same compound, the NEL (mouse [10]) was 19.8 mg/kg/day, the NOAEL (mouse [10]) was 19.8 mg/kg/day and the LEL (rat [11]; [32]) was 108 mg/kg/day. It also gave an LOAEL (rat [11]; [32]) of 108 mg/kg/day, an NEL (rat [11]; [32]) of 14 mg/kg/day and an NOAEL (rat [11]; [32]) of 14 mg/kg/day. The NEL (rat [11]; [37]) was 3.6 mg/kg/day, the NOAEL (rat [11]; [37]) was 3.6 mg/kg/day and the LEL (rat [11]; [38]) was 14 mg/kg/day. For the same compound, the LOAEL (rat [11]; [38]) was 14 mg/kg/day, the LOAEL (rat [12]; [39]) was 5 mg/kg/day and the NOAEL (rat [12]; [39]) was 1.49 mg/kg/day. For the same compound, the LEL (rat [12]; [40]) was 1.49 mg/kg/day, the NEL (rat [12]; [40]) was less than 1.49 mg/kg/day and the LEL (mouse [13]; systemic / clinical chemistry / flouride / fluoride) was 30 ppm. It also gave an LOAEL (mouse [13]; [35]) of 100 ppm, an NEL (mouse [13]; [35]) of 10 ppm and an NOAEL (mouse [13]; [35]) of 30 ppm. For the same compound, the LEL (rat [14]; [41]) was 249 mg/kg/day, the LOAEL (rat [14]; [41]) was 249 mg/kg/day and the NEL (rat [14]; [42]) was 83 mg/kg/day. The NOAEL (rat [14]; [42]) was 83 mg/kg/day, the LEL (rat [15]; [43]) was 20 ppm and the LOAEL (rat [15]; [43]) was 20 ppm. For the same compound, the NEL (rat [15]; [44]) was 5 ppm, the NOAEL (rat [15]; [44]) was 5 ppm and the LEL (rabbit [16]) was 90 mg/kg/day. The LOAEL (rabbit [16]) was 90 mg/kg/day, the NEL (rabbit [16]) was 30 mg/kg/day and the NOAEL (rabbit [16]) was 30 mg/kg/day. It also gave an LEL (dog [17]) of 80 ppm, an LOAEL (dog [17]) of 80 ppm and an NEL (dog [17]) of 20 ppm. The NOAEL (dog [17]) was 20 ppm.

For `CC(=O)NCCN1CCc2cc(NC(=O)c3ccccc3-c3ccc(C(F)(F)F)cc3)ccc2C1`, the LEL (dog [18]) was 1 mg/kg/day, the LOAEL (dog [18]) was greater than 5 mg/kg/day and the NEL (dog [18]) was less than 1 mg/kg/day. The NOAEL (dog [18]) was no less than 5 mg/kg/day, the LOAEL (rat [19]; [45]) was greater than 50 mg/kg/day and the NOAEL (rat [19]; [45]) was no less than 50 mg/kg/day. The LEL (rat [19]; [46]) was 1 mg/kg/day and the NEL (rat [19]; [46]) was less than 1 mg/kg/day.

Work on `CC(C)c1cccc(C(C)C)c1NC(=O)[N-]S(=O)(=O)c1cc(C(C)(C)O)co1.[Na+]` yielded an LEL (primate [20]; [47]) of 300 mg/kg/day, an NEL (primate [20]; [47]) of 100 mg/kg/day and an LOAEL (primate [20]; [48]) greater than 500 mg/kg/day. The NOAEL (primate [20]; [48]) was no less than 500 mg/kg/day, the LEL (primate [21]) was 300 mg/kg/day and the LOAEL (primate [21]) was greater than 300 mg/kg/day. For the same compound, the NEL (primate [21]) was less than 300 mg/kg/day, the NOAEL (primate [21]) was no less than 300 mg/kg/day and the LOAEL (mouse [22]; [49]) was greater than 300 mg/kg/day. The NEL (mouse [22]; [49]) was 75 mg/kg/day, the NOAEL (mouse [22]; [49]) was no less than 300 mg/kg/day and the LEL (mouse [22]; systemic / in life observation / body weight / body weight gain + systemic / organ weight / liver / absolute) was 150 mg/kg/day. It also gave an LEL (primate [23]) of 100 mg/kg/day, an LOAEL (primate [23]) greater than 100 mg/kg/day and an NEL (primate [23]) of less than 100 mg/kg/day. For the same compound, the NOAEL (primate [23]) was no less than 100 mg/kg/day, the NEL (rat [24]; systemic / organ weight / liver / absolute) was 20 mg/kg/day and the LEL (rat [24]; [50]) was 100 mg/kg/day. The LOAEL (rat [24]; [50]) was greater than 300 mg/kg/day and the NOAEL (rat [24]; [50]) was no less than 300 mg/kg/day.

Reference: EPA's ToxRefDB 2
